In US7652057B2, “Pyrazolones as 11b-HSD1 inhibitors for diabetes” (Hoffman-La Roche Inc., priority 2005, dated 2010):

Target: T1, human 11beta-HSD1 (Homo sapiens, UniProt P28845)
T1 construct: made in house; host or cells: HEK293 cells (ATCC CRL-1573), transient transfection with a pcDNA3 construct; microsomal fraction
Test: Microsome assay (cortisone to cortisol conversion, ELISA)
Assay type: biochemical
Conditions: microsomes from HEK293 cells transiently expressing human 11beta-HSD1; Cortisone 50-200 nM, NADPH 1 mM, 60 min at 37° C.; read-out: h 11-beta-HSD 1 IC50
Experimental: The cDNA encoding the human 11beta-HSD1 protein was cloned into the expression vector pcDNA3 ([…]). This construct (for details see Alex Odermatt et al.; J Biol Chem., 1999, Vol. 274, Issue 40, 28762-28770) was used to transiently express the protein in HEK293 cells (ATCC number: CRL-1573, described in Graham, F. L., Smiley, J., Russell, W. C., Nairn, R.; (1977)) using lipofectamine. 48 h after transfection cells were washed twice with ice-cold PBS (Phosphate buffered Saline). To 1 volume of cell suspension in PBS 2 volumes of ice-cold lysis buffer (50 mM Tris; pH7.5; 1 mM EDTA; 100 mM NaCl) were added. The cells were lysed by Potter-homogenization (20 strokes). The resulting homogenate was sonicated wit a tip sonicator (10% output; 2×30 sec.) and cleared by a low speed centrifugation (10 min×9000 g; 4° C.). The microsomal fraction was collected by a high speed centrifugation (60 min×110'000 g). […]
Microsomes isolated from HEK293 cells transiently expressing human 11beta-HSD1 (for details see above) were incubated in assay buffer (100 mM NaCl; 1 mM EDTA; 1 mM EGTA; 1 mM MgCl; 250 mM Sucrose; 20 mM Tris pH 7.4; Cortisone 50-200 nM and NADPH 1 mM) together with different concentrations of test substances. […] The amount of Cortisol produced in this assay was determined using a commercially available, ELISA-based Cortisol-detection kit (Distributed by Assay Design, Inc.). […]

T1 sequence (P28845 whole entry): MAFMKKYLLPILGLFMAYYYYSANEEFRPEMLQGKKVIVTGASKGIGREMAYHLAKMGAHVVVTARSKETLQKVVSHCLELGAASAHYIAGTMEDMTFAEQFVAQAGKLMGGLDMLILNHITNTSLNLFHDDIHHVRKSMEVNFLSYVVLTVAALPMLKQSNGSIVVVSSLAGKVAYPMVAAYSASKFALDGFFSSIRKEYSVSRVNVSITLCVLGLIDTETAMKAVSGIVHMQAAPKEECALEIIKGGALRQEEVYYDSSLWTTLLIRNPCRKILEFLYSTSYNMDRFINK

IC50 | SMILES
21 nM | Cn1c(C2CC2)c(C2CC2)c(=O)n1-c1ccccc1 [Example 1, 4,5-Dicyclopropyl-1-methyl-2-phenyl-1,2-dihydro-pyrazol-3-one]
133 nM | Cc1c(C23CC4CC(CC(C4)C2)C3)c(=O)n2n1CCCCC2 [Example 51, 2-adamantan-1-yl-3-methyl-6,7,8,9-tetrahydro-5H-pyrazolo[1,2-a][1,2]diazepin-1-one]
